For one assay, the target named is Cholinesterase (Homo sapiens, UniProt P06276). The assay can be described thus: Inhibition of human plasmatic BChE by Lineweaver-Burk plot analysis. Format: cell-free, Plasma.
In assay [1] the target is T1, Acetylcholinesterase (Homo sapiens, UniProt P22303). The assay can be described thus: Inhibition of human recombinant AChE by Lineweaver-Burk plot analysis.
The target of assay [2] is T1, Acetylcholinesterase.
Description: Dissociation constant for enzyme-inhibitor complex of human recombinant AChE by Lineweaver-Burk plot analysis
Assay [3] has as its target T1, Acetylcholinesterase. The source holds these as a separate data set.
Description: Dissociation constant for enzyme-inhibitor-substrate complex of human recombinant AChE by Lineweaver-Burk plot analysis

Structures are written as SMILES. pIC50, pKi: −log10 of the molar value.

T1 sequence (P22303 whole entry): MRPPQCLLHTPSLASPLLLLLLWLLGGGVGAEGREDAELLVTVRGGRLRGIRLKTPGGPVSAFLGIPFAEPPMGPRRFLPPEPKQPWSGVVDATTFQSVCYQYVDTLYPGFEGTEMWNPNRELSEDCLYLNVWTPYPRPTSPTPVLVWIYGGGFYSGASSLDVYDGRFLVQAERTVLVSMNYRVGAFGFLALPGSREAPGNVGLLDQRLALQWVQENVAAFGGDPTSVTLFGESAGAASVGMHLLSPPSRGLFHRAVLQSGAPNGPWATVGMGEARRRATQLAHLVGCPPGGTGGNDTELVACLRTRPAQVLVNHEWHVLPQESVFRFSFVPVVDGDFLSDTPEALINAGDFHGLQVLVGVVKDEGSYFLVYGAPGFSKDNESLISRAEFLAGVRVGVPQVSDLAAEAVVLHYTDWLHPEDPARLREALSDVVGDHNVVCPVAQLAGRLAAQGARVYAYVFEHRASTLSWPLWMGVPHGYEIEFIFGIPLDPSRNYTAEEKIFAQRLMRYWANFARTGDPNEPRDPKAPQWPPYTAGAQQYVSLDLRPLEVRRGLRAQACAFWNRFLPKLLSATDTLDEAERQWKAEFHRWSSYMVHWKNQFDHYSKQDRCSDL
Chain of Cholinesterase (P06276 whole entry): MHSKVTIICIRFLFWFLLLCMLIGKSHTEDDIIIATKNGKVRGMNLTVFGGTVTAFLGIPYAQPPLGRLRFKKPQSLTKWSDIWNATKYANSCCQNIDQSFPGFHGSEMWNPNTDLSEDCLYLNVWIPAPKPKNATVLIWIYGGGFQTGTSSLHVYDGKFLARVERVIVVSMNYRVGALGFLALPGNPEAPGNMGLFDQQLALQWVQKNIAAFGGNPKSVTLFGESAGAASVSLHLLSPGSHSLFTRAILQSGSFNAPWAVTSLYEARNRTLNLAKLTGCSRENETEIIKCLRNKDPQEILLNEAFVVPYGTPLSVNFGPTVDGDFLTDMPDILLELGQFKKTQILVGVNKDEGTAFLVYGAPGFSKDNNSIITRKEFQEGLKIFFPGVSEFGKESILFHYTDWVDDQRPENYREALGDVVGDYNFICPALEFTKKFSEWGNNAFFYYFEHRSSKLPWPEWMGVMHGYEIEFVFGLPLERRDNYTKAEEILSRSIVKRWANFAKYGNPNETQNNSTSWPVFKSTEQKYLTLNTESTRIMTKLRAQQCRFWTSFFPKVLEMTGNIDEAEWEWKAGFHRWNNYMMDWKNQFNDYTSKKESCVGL

`c1ccc2c[n+](CCCCCCCCC[n+]3ccc4ccccc4c3)ccc2c1`: the pIC50 was 6.22 against Cholinesterase and 7.40 on Acetylcholinesterase [1].
Consider `c1ccc2c[n+](CCCCCCCCCCC[n+]3ccc4ccccc4c3)ccc2c1`, for which the pIC50 on Cholinesterase is 5.05; at Acetylcholinesterase [1] it was 7.00.
In the same order, the values of `c1ccc2c[n+](CCCCCCCCCCCC[n+]3ccc4ccccc4c3)ccc2c1` are 7.00 and 3.86.
On to `c1ccc2c[n+](CCCCCCCCCC[n+]3ccc4ccccc4c3)ccc2c1`, for which the values for the negative logarithm of the IC50 (pIC50) against Cholinesterase and at Acetylcholinesterase [1] were 5.80 and 7.30, respectively.
Consider `c1ccc2c[n+](C[n+]3ccc4ccccc4c3)ccc2c1`, for which the pIC50 was 2.85 at Cholinesterase and 3.18 at Acetylcholinesterase [1].
In the same order, the values of `c1ccc2c[n+](CCC[n+]3ccc4ccccc4c3)ccc2c1` are 2.59 and 3.35.
Taken in the same sequence, the figures for `c1ccc2c[n+](CCCC[n+]3ccc4ccccc4c3)ccc2c1` were 4.40 and 4.44.
In the same order, the values of `c1ccc2c[n+](CCCCC[n+]3ccc4ccccc4c3)ccc2c1` are 6.15 and 4.89.
`c1ccc2c[n+](CCCCCC[n+]3ccc4ccccc4c3)ccc2c1`: the values for the pIC50 against Cholinesterase and at Acetylcholinesterase [1] were 5.70 and 6.52, respectively.
In the same order, the values of `c1ccc2c[n+](CCCCCCC[n+]3ccc4ccccc4c3)ccc2c1` are 5.52 and 6.30.
Taken in the same sequence, the figures for `c1ccc2c[n+](COC[n+]3ccc4ccccc4c3)ccc2c1` were 3.81 and 5.70.
Taken in the same sequence, the figures for `c1ccc2c[n+](CCOCC[n+]3ccc4ccccc4c3)ccc2c1` were 4.29 and 2.88.
Turning to `C(=C\C[n+]1ccc2ccccc2c1)/C[n+]1ccc2ccccc2c1`, the negative logarithm of the IC50 (pIC50) against Cholinesterase was 4.19; on Acetylcholinesterase [1] it was 5.15.
With `C(=C/C[n+]1ccc2ccccc2c1)/C[n+]1ccc2ccccc2c1`, the pIC50 at Cholinesterase was 4.60; on Acetylcholinesterase [1], 4.77.
Take `c1ccc(C[n+]2ccc3ccccc3c2)c(C[n+]2ccc3ccccc3c2)c1`: the negative logarithm of the IC50 (pIC50) on Cholinesterase is 6.22; on Acetylcholinesterase [1], 3.60.
In the same order, the values of `c1cc(C[n+]2ccc3ccccc3c2)cc(C[n+]2ccc3ccccc3c2)c1` are 6.00 and 5.10.
Taken in the same sequence, the figures for `c1ccc2c[n+](Cc3ccc(C[n+]4ccc5ccccc5c4)cc3)ccc2c1` were 3.08 and 4.92.
Consider `c1ccc2c[n+](Cc3ccc4ccc(C[n+]5ccc6ccccc6c5)cc4c3)ccc2c1`, for which the pIC50 is 5.40 against Cholinesterase and 6.52 on Acetylcholinesterase [1]. Also, the negative logarithm of the Ki (pKi) at Acetylcholinesterase [2] was 5.90; at Acetylcholinesterase [3] it was 6.12.
The compound `C[N+](C)(CCNC(=O)C(=O)NCC[N+](C)(C)Cc1ccccc1Cl)Cc1ccccc1Cl` [AMBENONIUM DICHLORIDE] showed a negative logarithm of the IC50 (pIC50) on Cholinesterase of 5.17.
`CC[N+](C)(C)c1cccc(O)c1` [EDROPHONIUM CHLORIDE] showed a negative-log IC50 (pIC50) against Cholinesterase of 2.86.

The values are drawn from ChEMBL document CHEMBL1667816, “Preparation and in vitro screening of symmetrical bis-isoquinolinium cholinesterase inhibitors bearing various connecting linkage--implications for early Myasthenia gravis treatment” (Eur J Med Chem, 2011).
